Tests used:
BaF3 PIM1 cells = BaF3 PIM1 cells (Homo sapiens, UniProt P11309); assay: BaF3 PIM1 cell proliferation (Cell Titer Glo); assay type: cell-based; details: incubated overnight; read-out: Prolif BaF3_PIM1 (IC50)
Method: (§1) BaF3 parental line was obtained from the DSMZ repository. BaF3 lines transfected with PIM1 or PIM2 were generated. Mouse IL-3 was purchased from R&D Systems. G418 was purchased from Clontech. Media for BaF3 parental line contained RPMI, 10% FBS, 2 mM L-Glutamine, 2 ng/mL mIL-3. Media for BaF3 PIM1 & 2 lines contained RPMI, 10% FBS, 2 mM L-Glutamine, […]. Media for MM1.S line contained RPMI, 10% FBS, 2 mM L-Glutamine.
(§2) BaF3 parental cells, BaF3 PIM1 cells, BaF3 PIM2 cells, and MM1.S cells were seeded at 2 k/well, 5 k/well, 5 k/well, and 10 k/well respectively, in a 384-well plate, at 45 μL/well. Test compound was added at 5 μL/well. BaF3 cells (parental and transfected) were incubated overnight, while MM1.S cells were incubated for 72 hours at 37° C., 5% CO2. Cell Titer Glo Reagent (Promega) was added at 50 μL/well, the plates were incubated for 30 minutes, and their luminescence read on an HT Analyst. IC50/EC50 values for the test compound were calculated.

MM1.S cells = assay: MM1.S cell proliferation, 72 hours (Cell Titer Glo); assay type: cell-based; details: Homo sapiens, 72 hours, read-out: Prolif MM1S ATP (EC50)
Method: as §1, §2

PIM1 = biological target: T1, PIM1 (Homo sapiens, UniProt P11309); assay: Pim-1 kinase enzymatic assay (Caliper LC3000, FAM-Pimtide substrate); assay type: biochemical; details: 20 pM PIM1, 10 μM ATP, 90 minutes; read-out: PIM1 LC3K (Ki)
T1 construct: made in house
T1 sequence (P11309 whole entry): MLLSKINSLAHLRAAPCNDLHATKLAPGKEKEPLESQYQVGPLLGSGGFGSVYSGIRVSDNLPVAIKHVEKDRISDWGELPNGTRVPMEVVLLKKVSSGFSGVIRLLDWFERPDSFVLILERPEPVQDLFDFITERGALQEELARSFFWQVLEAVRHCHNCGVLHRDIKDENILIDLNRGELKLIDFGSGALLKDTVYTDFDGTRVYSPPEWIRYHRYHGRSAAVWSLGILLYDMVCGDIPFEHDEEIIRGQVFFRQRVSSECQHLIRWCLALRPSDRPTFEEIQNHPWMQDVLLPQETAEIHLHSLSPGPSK
Method: (§3) Reaction Buffer contained 10 mM HEPES, pH 7.2, 10 mM MgCl2, 0.01% Tween 20, 2 mM DTT.
(§4) PIM reactions were carried out in a final volume of 10 μL per well in a 384-well plate. […] The separation of product and substrate was optimized by choosing voltages and pressure using Caliper's Optimizer software (Hopkinton, Mass.). The separation conditions used a downstream voltage of −500V, an upstream voltage of −2150V, and a screening pressure of −1.2 psi. […] Substrate conversion was calculated from the electrophoregram using HTS Well Analyzer software (Caliper Life Sciences, Hopkinton, Mass.). Ki values for the test compound were calculated.

PIM2 = biological target: T2, PIM2 (Homo sapiens, UniProt Q9P1W9); assay: Pim-2 kinase enzymatic assay (Caliper LC3000, FAM-Pimtide substrate); assay type: biochemical; details: 50 pM PIM2, 10 μM ATP, 90 minutes; read-out: PIM2 LC3K (Ki)
T2 construct: made in house
T2 sequence (Q9P1W9 whole entry): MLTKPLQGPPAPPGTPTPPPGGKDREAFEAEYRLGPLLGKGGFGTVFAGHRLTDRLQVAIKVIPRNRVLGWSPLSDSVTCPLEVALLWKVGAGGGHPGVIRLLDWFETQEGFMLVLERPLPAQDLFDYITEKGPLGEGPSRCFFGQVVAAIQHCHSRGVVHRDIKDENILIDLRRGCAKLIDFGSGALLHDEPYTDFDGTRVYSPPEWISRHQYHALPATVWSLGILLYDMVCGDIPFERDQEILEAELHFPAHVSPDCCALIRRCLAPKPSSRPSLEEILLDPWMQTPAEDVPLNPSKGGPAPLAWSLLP
Method: as §3, §4

PIM3 = biological target: T3, PIM3 (Homo sapiens, UniProt Q86V86); assay: Pim-3 kinase enzymatic assay (Caliper LC3000, FAM-Pimtide substrate); assay type: biochemical; details: 55 pM PIM3, 10 μM ATP, 90 minutes; read-out: PIM3 LC3K (Ki)
T3 construct: made in house
Method: as §3, §4

BaF3 PIM2 cells = BaF3 PIM2 cells (Homo sapiens, UniProt Q9P1W9); assay: BaF3 PIM2 cell proliferation (Cell Titer Glo); assay type: cell-based; details: incubated overnight; read-out: Prolif BaF3_PIM2 (IC50)
Chain of BaF3 PIM2 cells (Q9P1W9 whole entry, change not shown): as the sequence (Q9P1W9 whole entry) above
Method: as §1, §2

Chain of BaF3 PIM1 cells (P11309 whole entry, change not shown): as the sequence (P11309 whole entry) above

Row | GI50 (BaF3 PIM1 cells) [nM] | EC50 (MM1.S cells) [nM] | Ki (PIM1) [nM] | Ki (PIM2) [nM] | Ki (PIM3) [nM] | GI50 (BaF3 PIM2 cells) [nM] | SMILES
1 | 1500 | 1500 |  |  |  |  | Nc1sc(-c2c(F)cccc2F)nc1C(=O)Nc1cnccc1N1CCC[C@H](N)C1 (single isomer, unassigned) [Example 25]
2 | 33.2 | 108 | 0.0224 | 0.0671 | 0.0156 | 1400 | Nc1sc(-c2ccccc2F)nc1C(=O)Nc1cnccc1N1CCC[C@H](N)C1 [Example 1, (S)-5-amino-N-(4-(3-aminopiperidin-1-yl)pyridin-3-yl)-2-(2-fluorophenyl)thiazole-4-carboxamide]
3 | 67.2 | 218 | 0.0355 | 0.126 | 0.0205 | 2000 | Nc1sc(-c2ccccc2Cl)nc1C(=O)Nc1cnccc1N1CCC[C@H](N)C1 [Example 2, (S)-5-amino-N-(4-(3-aminopiperidin-1-yl)pyridin-3-yl)-2-(2-chlorophenyl)thiazole-4-carboxamide]
4 | 55.8 | 160 | 0.023 | 0.154 | 0.026 | > 2500 | Nc1sc(-c2cc(Br)ccc2F)nc1C(=O)Nc1cnccc1N1CCC[C@H](N)C1 [Example 4, (S)-5-amino-N-(4-(3-aminopiperidin-1-yl)pyridin-3-yl)-2-(5-bromo-2-fluorophenyl)thiazole-4-carboxamide]
5 | 300 | 1500 | 0.044 | 0.493 | 0.05 | 2800 | Nc1sc(-c2cc(Br)ccc2Cl)nc1C(=O)Nc1cnccc1N1CCC[C@H](N)C1 [Example 5, (S)-5-amino-N-(4-(3-aminopiperidin-1-yl)pyridin-3-yl)-2-(5-bromo-2-chlorophenyl)thiazole-4-carboxamide]
6 | 117 | 595 | 0.063 | 0.379 | 0.032 | 1400 | Nc1sc(-c2cccc(Br)c2)nc1C(=O)Nc1cnccc1N1CCC[C@H](N)C1 [Example 6, (S)-5-amino-N-(4-(3-aminopiperidin-1-yl)pyridin-3-yl)-2-(3-bromophenyl)thiazole-4-carboxamide]
7 | 73 | 141 | 0.091 | 0.203 | 0.0215 | 3100 | Nc1sc(-c2ccccc2)nc1C(=O)Nc1cnccc1N1CCC[C@H](N)C1 [Example 7, (S)-5-amino-N-(4-(3-aminopiperidin-1-yl)pyridin-3-yl)-2-phenylthiazole-4-carboxamide]
8 | 713 | > 20000 | 3.47 | 16.3 | 9.53 | > 20000 | Cc1nc(C(=O)Nc2cnccc2N2CCC[C@H](N)C2)c(N)s1 [Example 8, (S)-5-amino-N-(4-(3-aminopiperidin-1-yl)pyridin-3-yl)-2-methylthiazole-4-carboxamide]
9 | 68.8 | 89.7 | 0.084 | 0.16 | 0.014 | 1900 | Nc1sc(-c2ccccn2)nc1C(=O)Nc1cnccc1N1CCC[C@H](N)C1 [Example 9, (S)-5-amino-N-(4-(3-aminopiperidin-1-yl)pyridin-3-yl)-2-(pyridin-2-yl)thiazole-4-carboxamide]
10 | 3600 | > 20000 | 36.7 | 51.2 | 24 |  | Nc1scnc1C(=O)Nc1cnccc1N1CCC[C@H](N)C1 [Example 10, (S)-5-amino-N-(4-(3-aminopiperidin-1-yl)pyridin-3-yl)thiazole-4-carboxamide]
11 | 607 | 9200 | 0.502 | 0.885 | 0.166 | 13200 | Nc1sc(-c2cccnc2)nc1C(=O)Nc1cnccc1N1CCC[C@H](N)C1 [Example 11, (S)-5-amino-N-(4-(3-aminopiperidin-1-yl)pyridin-3-yl)-2-(pyridin-3-yl)thiazole-4-carboxamide]
12 |  | > 20000 | 0.102 | 0.403 | 0.04 |  | Nc1sc(-c2cccc(Cl)c2)nc1C(=O)Nc1cnccc1N1CCC[C@H](N)C1 [Example 13, (S)-5-amino-N-(4-(3-aminopiperidin-1-yl)pyridin-3-yl)-2-(3-chlorophenyl)thiazole-4-carboxamide]
13 |  | > 20000 | 36.7 | 195 | 9.25 |  | Nc1sc(-c2ccccc2)nc1C(=O)Nc1cccnc1 [Example 14, 5-amino-2-phenyl-N-(pyridin-3-yl)thiazole-4-carboxamide]
14 | 581 | 3200 | 0.735 | 3.55 |  | > 20000 | Nc1sc(-c2cn3ccccc3n2)nc1C(=O)Nc1cnccc1N1CCC[C@H](N)C1 [Example 19, (S)-5-amino-N-(4-(3-aminopiperidin-1-yl)pyridin-3-yl)-2-(imidazo[1,2-a]pyridin-2-yl)thiazole-4-carboxamide]
15 |  |  | 1200 | 4900 | 496 |  | Nc1[nH]c(-c2ccccc2)nc1C(=O)Nc1cnccc1N1CCC[C@H](N)C1 [Example 20, (S)-5-amino-N-(4-(3-aminopiperidin-1-yl)pyridin-3-yl)-2-phenyl-1H-imidazole-4-carboxamide]
16 | 410 | 3500 | 0.6 | 2.51 |  | 13300 | Nc1sc(-c2ccncc2)nc1C(=O)Nc1cnccc1N1CCC[C@H](N)C1 [Example 33, (S)-5-amino-N-(4-(3-aminopiperidin-1-yl)pyridin-3-yl)-2-(pyridin-4-yl)thiazole-4-carboxamide]
17 | 562 | 14000 | 2.18 | 8.69 | 3.77 |  | CC(C)c1nc(C(=O)Nc2cnccc2N2CCC[C@H](N)C2)c(N)s1 [Example 36, (S)-5-amino-N-(4-(3-aminopiperidin-1-yl)pyridin-3-yl)-2-isopropylthiazole-4-carboxamide]
18 | 2200 | 2100 | 1.14 | 0.635 |  |  | Nc1sc(C2CCCCC2)nc1C(=O)Nc1cnccc1N1CCC[C@H](N)C1 [Example 37, (S)-5-amino-N-(4-(3-aminopiperidin-1-yl)pyridin-3-yl)-2-cyclohexylthiazole-4-carboxamide]
19 | 3200 | 11900 | 3.73 | 33.8 | 12.7 |  | Nc1sc(Cc2ccccc2)nc1C(=O)Nc1cnccc1N1CCC[C@H](N)C1 [Example 38, (S)-5-amino-N-(4-(3-aminopiperidin-1-yl)pyridin-3-yl)-2-benzylthiazole-4-carboxamide]
20 |  | 4800 |  |  |  |  | N[C@H]1CCCN(c2ccncc2NC(=O)c2csc(-c3c(F)cccc3F)n2)C1 [Example 46, (S)-N-(4-(3-aminopiperidin-1-yl)pyridin-3-yl)-2-(2,6-difluorophenyl)thiazole-4-carboxamide]
21 | 1400 | 8000 | 1.33 | 6.84 | 0.487 |  | N[C@H]1CCCN(c2ccncc2NC(=O)c2csc(-c3ccccc3)n2)C1 [Example 48, (S)-N-(4-(3-aminopiperidin-1-yl)pyridin-3-yl)-2-phenylthiazole-4-carboxamide]
22 | 4000 | > 20000 | 29.7 | 259 | 91.2 |  | Nc1sc(Cc2ccccc2)nc1C(=O)Nc1cnccc1N1CCC[C@H](NC(=O)C(F)(F)F)C1 [Example 49, (S)-5-amino-2-benzyl-N-(4-(3-(2,2,2-trifluoroacetamido)piperidin-1-yl)pyridin-3-yl)thiazole-4-carboxamide]
23 |  | 158 | 0.032 | 0.12 | 0.028 |  | Nc1sc(-c2c(F)cccc2Cl)nc1C(=O)Nc1cnccc1N1CCC[C@H](N)C1 [Example 55, (S)-5-amino-N-(4-(3-aminopiperidin-1-yl)pyridin-3-yl)-2-(2-chloro-6-fluorophenyl)thiazole-4-carboxamide]
24 |  |  | 21.6 | 57.7 | 18 |  | Nc1sc(C2CCNC2)nc1C(=O)Nc1cnccc1N1CCCC(N)C1 (stereo not drawn) [Example 64, 5-amino-N-(4-(3-aminopiperidin-1-yl)pyridin-3-yl)-2-(pyrrolidin-3-yl)thiazole-4-carboxamide]
